# From patent US6472391B2, “Nitrogen-containing heterocyclic compounds” (Millennium Pharmaceuticals, Inc., priority 1996, dated 2002)
# Read-outs that look alike come from different tables or passages of the source.
# How the values were obtained:
# [1] = system: Vascular smooth muscle cells; assay: Growth inhibition against smooth muscle cells (PDGF-BB stimulated, XTT method); format: cell-based; conditions: Sus scrofa, 72 h, pig aorta cells, PDGF-BB 20 ng/ml, 3 days, read-out: Growth Inhibitory effect against smooth muscle cells IC50
# Description: Test Example 2 Growth Inhibition Against Smooth Muscle Cells
# Vascular smooth muscle cells were isolated from a pig aorta by explantation and used for the test. The cells were put into wells of a 96-well plate (8000 cells/well) and cultured in Dulbecco's modified Eagle's medium (DMEM; Nissui Pharmaceutical Co., Ltd.) containing 10% fetal bovine serum (FBS; Hyclone) for 4 days. Then, the cells were further cultured in DMEM containing 0.1% FBS for 3 days, and were synchronized at the cell growth stationary phase.
# To each well was added DMEM containing 0.1% FBS and a test sample at a varied concentration, and the cell growth was brought about by PDGF-BB (SIGMA, final concentration: 20 ng/ml). After culturing for 3 days, the cell growth was measured using the cell growth assay kit (Boehringer Mannheim) according to the XTT method [J. Immunol. Methods, 142, 257-265 (1991)], and the cell growth score was calculated by the following equation.
# P100: Absorbance by XTT reagent when stimulated by PDGF-BB
# P0: Absorbance by XTT reagent when not stimulated by PDGF-BB
# M: Absorbance by XTT reagent after addition of a sample when stimulated by PDGF-BB
# human β-PDGF receptor = target: T1, human β-PDGF receptor (Homo sapiens, UniProt P09619); assay: Inhibitory effect on phosphorylation of PDGF receptor; format: cell-based; conditions: CHO cells expressing human β-PDGF receptor
# T1 construct: expressed in transfected cells; host or cells: Chinese hamster ovary cells (CHO)
# T1 sequence (P09619 33-1106): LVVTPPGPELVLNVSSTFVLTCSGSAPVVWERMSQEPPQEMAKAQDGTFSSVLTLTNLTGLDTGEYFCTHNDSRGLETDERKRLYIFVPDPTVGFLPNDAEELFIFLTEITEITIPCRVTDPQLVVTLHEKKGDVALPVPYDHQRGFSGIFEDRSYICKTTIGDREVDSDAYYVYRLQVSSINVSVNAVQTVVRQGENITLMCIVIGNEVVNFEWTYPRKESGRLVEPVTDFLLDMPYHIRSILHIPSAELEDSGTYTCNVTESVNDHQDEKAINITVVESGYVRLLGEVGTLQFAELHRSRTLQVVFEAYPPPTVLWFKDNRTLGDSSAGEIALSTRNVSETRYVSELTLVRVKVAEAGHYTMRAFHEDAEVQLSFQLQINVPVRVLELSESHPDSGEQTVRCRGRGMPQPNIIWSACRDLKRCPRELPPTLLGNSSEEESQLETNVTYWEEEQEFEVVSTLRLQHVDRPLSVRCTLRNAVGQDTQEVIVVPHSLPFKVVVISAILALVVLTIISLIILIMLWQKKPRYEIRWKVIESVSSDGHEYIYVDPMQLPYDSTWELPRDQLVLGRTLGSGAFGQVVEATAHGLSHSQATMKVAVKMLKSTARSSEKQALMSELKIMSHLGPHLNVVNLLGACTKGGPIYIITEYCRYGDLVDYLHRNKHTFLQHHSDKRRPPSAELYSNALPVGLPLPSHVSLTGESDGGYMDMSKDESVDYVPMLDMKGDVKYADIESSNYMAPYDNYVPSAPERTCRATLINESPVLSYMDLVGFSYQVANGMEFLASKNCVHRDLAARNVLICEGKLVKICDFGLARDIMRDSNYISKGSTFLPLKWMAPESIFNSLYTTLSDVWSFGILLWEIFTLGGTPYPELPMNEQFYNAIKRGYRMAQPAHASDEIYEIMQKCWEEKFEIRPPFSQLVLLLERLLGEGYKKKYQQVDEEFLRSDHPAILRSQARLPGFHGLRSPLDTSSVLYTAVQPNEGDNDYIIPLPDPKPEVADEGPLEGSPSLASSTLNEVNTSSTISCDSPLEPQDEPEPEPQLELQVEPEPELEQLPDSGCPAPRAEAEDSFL
# Protocol: Test Example 1 Inhibitory Effect on Phosphorylation of PDGF Receptor
# The test was carried out according to the method described in the literature [Dah-Shuhn et al., J. Biol. Chem., 266, 413-418 (1991)], using Chinese hamster ovary cells (CHO) wherein human β-PDGF receptor cDNA was introduced and expressed.
# Lewis rats = assay: Rat adjuvant arthritis model; format: in vivo; conditions: 3 mg/ml suspension, 1 ml/100 g orally once a day; for inhibition at 3000 µg/mL (stock): Rattus norvegicus, po, 120 h
# Protocol: Test Example 4 Evaluation by the use of a Rat Adjuvant Arthritis Model
# Killed cells of Mycobacterium butyricum (Difco Laboratories Inc.) were disrupted in agate mortar and suspended in liquid paraffin to the final concentration of 6.6 mg/ml, followed by sterilization with high pressure steam. Then, 100 μl of the suspension was intradermaly injected into the right hind foot pad of each animal of groups of female 8-weeks-old Lewis rats (Charles River Japan) (6 animals/group) to induce adjuvant arthritis. A test compound was suspended in a 0.5% solution of methylcellulose to the final concentration of 3 mg/ml, and from just before the induction of arthritis, the suspension was orally administered in an amount of 1 ml/100 g of the body weight once a day, 5 days a week. To a control group was administered a 0.5% solution of methylcellulose. A normal group was given no adjuvant treatment or test compound administration. The administration of the test compound was continued till the 18th day after the adjuvant treatment. On the 17th day, the number of leukocytes in peripheral blood was counted, and on the 18th day, all the blood was collected, followed by dissection. The change in body weight with the passage of time, the change of edema in hind paw with the passage of time, the weight of spleen and thymus, the number of leukocytes in peripheral blood, the hydroxyproline content of urine, the glucosaminoglycan content of urine, the SH concentration in serum, the concentration of nitrogen monoxide in serum and the concentration of mucoprotein in serum were measured and evaluated. The volume of both hind paws was measured using a rat's hind foot edema measurement device (TK-101, Unicom). The number of leukocytes in peripheral blood was counted using an automatic multichannel blood cell counter (Sysmex K-2000, Toa Iyo Denshi Co., Ltd.). The hydroxyproline content of urine was measured according to the method described in Ikeda, et al., Annual Report of Tokyo Metropolitan Research Laboratories P. H., 36, 277 (1985), and the glucosaminoglycan content was measured according to the method described in Moriyama, et al., Hinyo Kiyo, 40, 565 (1994) and Klompmakers, et al., Analytical Biochemistry, 153, 80 (1986). […] The concentration of mucoprotein was measured using Aspro GP Kit (Otsuka Pharmaceutical Co., Ltd.). The percentage of inhibition for each indication was calculated according to the following equation.
# % Inhibition={(Control group−Compound-administered group)/(Control group−Normal group)}×100
SMILES,melting point,IC50 [1],IC50 (human β-PDGF receptor),other results
"COc1cc2ncnc(N3CCN(C(=O)Nc4ccc(C(C)C)cc4)CC3)c2cc1OC [Compound 19, 4-(6,7-Dimethoxy-4-quinazolinyl)-N-(4-isopropylphenyl)-1-piperazinecarboxamide]",252 to 254 °C,180 nM,,
"COc1cc2ncnc(N3CCN(C(=O)Nc4ccc(Br)cc4)CC3)c2cc1OC [Compound 45, N-(4-bromophenyl)-4-(6,7-dimethoxy-4-quinazolinyl)-1-piperazinecarboxamide]",223 to 228 °C,80 nM,160 nM,
"COc1cc2ncnc(N3CCN(C(=O)Nc4ccc(Oc5ccccc5)cc4)CC3)c2cc1OC [Compound 60, 4-(6,7-Dimethoxy-4-quinazolinyl)-N-(4-phenoxyphenyl)-1-piperazinecarboxamide]",,30 nM,,
"COc1cc2ncnc(N3CCN(C(=O)Nc4ccc([N+](=O)[O-])cc4)CC3)c2cc1OC [Compound 77, 4-(6,7-dimethoxy-4-quinazolinyl)-N-(4-nitrophenyl)-1-piperazinecarboxamide]",272 to 274 °C,100 nM,,
"COc1cc2ncnc(N3CCN(C(=S)Nc4ccccc4[N+](=O)[O-])CC3)c2cc1OC [Compound 78, 4-(6,7-Dimethoxy-4-quinazolinyl)-N-(2-nitrophenyl)-1-piperazinethiocarboxamide]",177 to 178 °C,740 nM,580 nM,
"COc1cc2ncnc(N3CCN(C(=S)Nc4cccc([N+](=O)[O-])c4)CC3)c2cc1OC [Compound 79, 4-(6,7-Dimethoxy-4-quinazolinyl)-N-(3-nitrophenyl)-1-piperazinethiocarboxamide]",140 to 143 °C,140 nM,120 nM,
"COc1cc2ncnc(N3CCN(C(=S)Nc4ccc(CNC(=O)OC(C)(C)C)cc4)CC3)c2cc1OC [Compound 228, N-[4-(N-tert-Butoxycarbonylaminomethyl)phenyl]-4-(6,7-dimethoxy-4-quinazolinyl)-1-piperazinethiocarboxamide]",123 to 126 °C,,290 nM,
"COc1cc2ncnc(N3CCN(C(=O)Nc4ccc(N=Nc5ccccc5)cc4)CC3)c2cc1OC [Compound 229, 4-(6,7-Dimethoxy-4-quinazolinyl)-N-(4-phenylazophenyl)-1-piperazinecarboxamide]",244 to 246 °C,,310 nM,
"COc1cc2ncnc(N3CCN(C(=O)Nc4ccc(C#N)cc4)CC3)c2cc1OC [Compound 239, N-(4-Cyanophenyl)-4-(6,7-dimethoxy-4-quinazolinyl)-1-piperazinecarboxamide]",274 to 275 °C,,,"Volume of left hind foot (Lewis rats; 5 days a week, normal 1.12 ± 0.03, sensitized control 1.84 ± 0.18): 1.52 ± 0.16 mL; Weight of spleen (Lewis rats; normal 21.4 ± 0.3, sensitized control 53.8 ± 3.8, P < 0.05 vs control): 40.4 ± 2.5 mg/10 g of body weight; Body weight (Lewis rats; normal 191 ± 5, sensitized control 146 ± 4, P < 0.05 vs control): 159 ± 2 g; inhibition at 3000 µg/mL (stock) (Lewis rats; 5 days a week, read-out: Inhibition rate (NO concentration)): 42%; inhibition at 3000 µg/mL (stock) (Lewis rats; 5 days a week, read-out: Inhibition rate (body weight)): 29%; inhibition at 3000 µg/mL (stock) (Lewis rats; 5 days a week, read-out: Inhibition rate (volume of left hind foot)): 44%; inhibition at 3000 µg/mL (stock) (Lewis rats; 5 days a week, read-out: Inhibition rate (weight of spleen)): 41%; NO concentration (Lewis rats; serum, normal 11.1 ± 1.0, sensitized control 56.6 ± 7.0): 37.6 ± 4.0 µM"
"COc1cc2ncnc(N3CCN(C(=S)NCc4ccc(C#N)cc4)CC3)c2cc1OC [Compound 240, N-(4-Cyanobenzyl)-4-(6,7-dimethoxy-4-quinazolinyl)-1-piperazinethiocarboxamide]",186 to 187 °C,,500 nM,
"COc1cc2ncnc(N3CCN(C(=S)Nc4cccc(C(C)=O)c4)CC3)c2cc1OC [Compound 241, N-(3-Acetylphenyl)-4-(6,7-dimethoxy-4-quinazolinyl)-1-piperazinethiocarboxamide]",192 to 193 °C,,400 nM,
"COc1cc2ncnc(N3CCN(C(=S)Nc4ccc(S(=O)(=O)N5CCCCC5)cc4)CC3)c2cc1OC [Compound 254, 4-(6,7-Dimethoxy-4-quinazolinyl)-N-(4-piperidinosulfonylphenyl)-1-piperazinethiocarboxamide]",149 to 150 °C,,460 nM,
"COc1cc2ncnc(N3CCN(C(=O)Nc4ccoc4)CC3)c2cc1OC [Compound 255, 4-(6,7-Dimethoxy-4-quinazolinyl)-N-(3-furyl)-1-piperazinecarboxamide]",213 to 215 °C,,660 nM,
"COc1cc2ncnc(N3CCN(C(=O)Nc4ccc(-n5cccc5)nc4)CC3)c2cc1OC [Compound 283, 4-(6,7-Dimethoxy-4-quinazolinyl)-N-[2-(1-pyrrolyl)-5-pyridyl]-1-piperazinecarboxamide]",252 to 254 °C,,1400 nM,
"Cc1ccc2ncnc(N3CCN(C(=O)Nc4ccc(Oc5ccccc5)cc4)CC3)c2c1 [Compound 292, 4-(6-Methyl-4-quinazolinyl)-N-(4-phenoxyphenyl)-1-piperazinecarboxamide]",244 to 246 °C,,760 nM,
"O=C(Nc1ccc(Oc2ccccc2)cc1)N1CCN(c2ncnc3ccc(F)cc23)CC1 [Compound 297, 4-(6-Fluoro-4-quinazolinyl)-N-(4-phenoxyphenyl)-1-piperazinecarboxamide]",186 to 187 °C,,330 nM,
"Cc1ccc2c(N3CCN(C(=O)Nc4ccc(Oc5ccccc5)cc4)CC3)ncnc2c1 [Compound 312, 4-(7-Methyl-4-quinazolinyl)-N-(4-phenoxyphenyl)-1-piperazinecarboxamide]",184 to 185 °C,,260 nM,
"O=C(Nc1ccc(Oc2ccccc2)cc1)N1CCN(c2ncnc3cc(Cl)c([N+](=O)[O-])cc23)CC1 [Compound 357, 4-(7-Chloro-6-nitro-4-quinazolinyl)-N-(4-phenoxyphenyl)-1-piperazinecarboxamide]",190 to 191 °C,,190 nM,
"S=C(NCc1cccnc1)N1CCN(c2ncnc3cc4ccccc4cc23)CC1 [Compound 366, 4-(4-Benzo[g]quinazolinyl)-N-(3-picolyl)-1-piperazinethiocarboxamide]",107 to 110 °C,,1470 nM,
"COc1cc2ncnc(N3C[C@@H](C)N(C(=S)NCc4ccccc4)[C@@H](C)C3)c2cc1OC [Compound 433, N-Benzyl-4-(6,7-dimethoxy-4-quinazolinyl)-(cis-2,6-dimethyl)-1-piperazinethiocarboxamide]",165 to 166 °C,,380 nM,
